Key:
[1] = In vitro determination of NO release with Griess reagent; conditions: 100 μM, L-cysteine, pH 7.4, 37 °C, 60 min
Description: This assay evaluates the ability of nitrate esters to release nitric oxide (NO). First, sodium nitroprusside (SNP) reacts with the thiol compound, cysteine, which serves as a reducing agent (Scheme 5). The thiol donates electrons, facilitating the breakdown of the nitroprusside complex. Afterwards, the reaction leads to the formation of intermediate complexes, such as nitrosothiol species and the decomposition of these intermediates results in the release of nitric oxide (NO). According to the literature, measurements are conducted both in the presence and absence of the thiol agent, cysteine. No significant difference was observed between the two experimental conditions, and the results were reproducible. Sodium nitroprusside (SNP) was used as the reference compound [65].
The compounds (from a 10 mM stock solution in DMSO, final concentration 100 μM) are added (20 μL) to each test tube. Then, 2 mL of phosphate buffer solution (pH 7.4) is added. L-cysteine, used as the thiol agent, is added to the mixture at a final concentration of 0.5 mM. The solution is incubated at 37 °C for 60 min, after which 1 mL is removed and mixed with 250 μL of Griess reagent (4 g sulfanilamide, 0.2 g N-(1-naphthyl)-ethylenediamine dihydrochloride, and 10 mL of H3PO4 solution, final volume adjusted to 100 mL). The mixture is allowed to stand for 10 min at room temperature, and the absorbance of the produced compound is measured at 540 nm. Sodium nitroprusside (SNP) is used as the reference compound. The results are presented as the release of NO2^− (% NO2^− (mol/mol)) induced by the compounds in the presence of L-cysteine (Table 6).

ovine COX-2 = molecular target: T1, ovine COX-2 (Ovis aries, UniProt P79208); assay: In vitro inhibition of ovine cyclooxygenase-2
T1 sequence (P79208 17-603): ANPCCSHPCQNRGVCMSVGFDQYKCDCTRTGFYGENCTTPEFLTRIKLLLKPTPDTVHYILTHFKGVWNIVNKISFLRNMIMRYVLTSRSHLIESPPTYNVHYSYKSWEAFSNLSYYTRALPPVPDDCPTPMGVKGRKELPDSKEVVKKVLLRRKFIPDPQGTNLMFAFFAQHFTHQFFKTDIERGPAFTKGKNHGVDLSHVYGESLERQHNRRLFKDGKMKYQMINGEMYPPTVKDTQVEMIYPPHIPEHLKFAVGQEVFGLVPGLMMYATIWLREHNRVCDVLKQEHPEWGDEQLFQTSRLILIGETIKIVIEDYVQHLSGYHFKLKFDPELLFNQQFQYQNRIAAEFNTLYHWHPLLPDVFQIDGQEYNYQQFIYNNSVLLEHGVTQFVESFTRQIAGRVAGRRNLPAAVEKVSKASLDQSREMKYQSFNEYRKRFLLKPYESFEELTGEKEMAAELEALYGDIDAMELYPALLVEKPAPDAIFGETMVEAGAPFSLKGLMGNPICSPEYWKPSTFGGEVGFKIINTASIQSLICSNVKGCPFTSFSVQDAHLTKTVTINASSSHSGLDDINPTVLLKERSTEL

bovine serum albumin = molecular target: T2, bovine serum albumin (Bos taurus, UniProt P02769); assay: In vitro inhibition of albumin denaturation; conditions: heat denaturation, 60 °C 10 min
T2 construct: bovine serum albumin solution (fraction V); purchased Merck and Sigma-Aldrich; host or cells: bovine serum (fraction V)
Description: The ability of a compound to inhibit the thermal denaturation of albumin is considered an indicator of anti-inflammatory activity. Heat exposure simulates conditions of cellular stress or inflammation, during which protein and tissue damage occur. Certain substances can protect proteins from denaturation upon heating by stabilizing their structure and preventing aggregation and precipitation.
Inhibition of albumin denaturation was measured following the reported method. In a test tube, 1 mL of bovine serum albumin solution (fraction V, 1% w/v in phosphate buffer, pH 7.4) and 100 μL of the test compound solution were added sequentially. The mixture was incubated at 37 °C for 15 min, followed by heating at 60 °C for 10 min. After cooling to room temperature, the absorbance was measured at 660 nm. DMSO was used as the blank, and the results were compared to acetylsalicylic acid, which served as the reference compound (Table 6).

[2] = In vitro inhibition of linoleic acid lipid peroxidation (AAPH); conditions: 100 μM; anti-lipid peroxidation
Description: In the present study, the aim was to evaluate the anti-lipid peroxidation activities of the synthesized compounds 5a–i, 6a–i, 9a–i, and 11 and compare their efficacy to that of Trolox, a well-known antioxidant. Using the water-soluble compound 2,2′-azobis(2-amidinopropane) hydrochloride (AAPH), peroxyl radicals are generated through spontaneous thermal decomposition in vitro. This experimental setup imitated the lipid peroxidation processes occurring in cells due to radical activity allowing the investigation of the effectiveness of the tested compounds under conditions resembling cellular oxidative stress.
An in vitro assay was performed following previously established protocols. The compound 2,2′-Azobis(2-methylpropionamidine) dihydrochloride (AAPH) was used as a controlled source of thermally generated alkylperoxy free radicals. The formation of conjugated diene hydroperoxides through the oxidation of sodium linoleate in an aqueous dispersion at 37 °C was measured by monitoring absorbance at 234 nm. The results were compared with the reference compound, Trolox (93%) (Table 6).

[3] = molecular target: T3, soybean lipoxygenase isoenzyme-1 (SLOX-1) (Glycine max, UniProt P08170); assay: In vitro inhibition of soybean lipoxygenase; type: biochemical; conditions: for IC50: pH 9.0, read-out: LOX Inh. IC50; for LOX Inh. IC50: pH 9.0
T3 construct: purchased Merck and Sigma-Aldrich
T3 sequence (P08170 1-839): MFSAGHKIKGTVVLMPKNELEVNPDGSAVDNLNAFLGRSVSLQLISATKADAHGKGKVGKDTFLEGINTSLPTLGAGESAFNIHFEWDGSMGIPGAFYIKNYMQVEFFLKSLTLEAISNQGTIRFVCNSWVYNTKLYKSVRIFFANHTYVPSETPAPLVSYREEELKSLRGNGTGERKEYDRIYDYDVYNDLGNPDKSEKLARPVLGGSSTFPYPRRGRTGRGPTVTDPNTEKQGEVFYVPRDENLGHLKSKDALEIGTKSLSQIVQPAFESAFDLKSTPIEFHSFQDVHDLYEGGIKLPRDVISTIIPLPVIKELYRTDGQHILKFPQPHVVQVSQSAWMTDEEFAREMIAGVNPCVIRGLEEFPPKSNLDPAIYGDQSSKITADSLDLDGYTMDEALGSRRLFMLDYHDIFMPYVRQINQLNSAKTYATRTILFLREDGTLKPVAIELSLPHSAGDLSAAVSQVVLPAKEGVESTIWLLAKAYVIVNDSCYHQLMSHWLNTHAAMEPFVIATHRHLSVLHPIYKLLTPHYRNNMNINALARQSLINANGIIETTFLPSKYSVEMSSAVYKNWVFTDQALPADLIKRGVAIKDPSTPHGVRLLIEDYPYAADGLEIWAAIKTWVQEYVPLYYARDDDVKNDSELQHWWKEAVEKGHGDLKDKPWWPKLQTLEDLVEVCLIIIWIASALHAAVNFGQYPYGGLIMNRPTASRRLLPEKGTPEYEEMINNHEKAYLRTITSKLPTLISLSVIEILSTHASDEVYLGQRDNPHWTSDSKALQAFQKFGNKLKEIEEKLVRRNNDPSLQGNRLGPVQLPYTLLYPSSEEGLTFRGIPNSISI
Description: In vitro anti-LOX activities were evaluated using soybean lipoxygenase isoenzyme-1 (SLOX-1), a commonly used model for mammalian LOXs.
An in vitro study was conducted following a previously reported method. The tested compounds were dissolved in DMSO (100 µM) and incubated at room temperature with 0.1 mL of sodium linoleate as the substrate and 0.2 mL of soybean lipoxygenase solution in Tris-HCl buffer (pH 9.0).

HeLa cells = assay: MTT viability assay; type: cell-based; conditions: Homo sapiens
Description: (§1) HeLa, MCF-7, U251, U87, MDA-MB-435, and MDA-MB-231 cancer cell lines were maintained in incubators at 37 °C with 5% CO2 in DMEM medium supplemented with 10% (v/v) fetal bovine serum (FBS) and antibiotics/antimycotics. All cell lines used in this study originate from the Laboratory of Biochemistry, Department of Chemistry, Aristotle University of Thessaloniki. They are low-passage, mycoplasma-free cancer cell lines that have been extensively used over the past 25 years in numerous studies across various fields of cancer research, including drug cytotoxicity testing.
(§2) All cell lines tested were seeded in 96-well plates at a concentration of 6 × 10^3 cells per well, except HeLa, which were seeded at 3 × 10^3 cells per well. The day after, cells were exposed to increasing concentrations of the compounds for 48 h. Cell viability was determined using the 3-(4,5-dimethylthiazol-2-yl)-2,5-diphenyltetrazolium bromide (MTT) assay, a colorimetric assessment of cellular metabolic activity as described previously. Absorbance values from treated samples were normalized to those of untreated controls, which were assigned to a 100% viability value.

MCF-7 cells = assay: MTT viability assay; type: cell-based; conditions: Homo sapiens, MCF7, 48 h
Description: as §1, §2

T2 sequence (P02769 25-607): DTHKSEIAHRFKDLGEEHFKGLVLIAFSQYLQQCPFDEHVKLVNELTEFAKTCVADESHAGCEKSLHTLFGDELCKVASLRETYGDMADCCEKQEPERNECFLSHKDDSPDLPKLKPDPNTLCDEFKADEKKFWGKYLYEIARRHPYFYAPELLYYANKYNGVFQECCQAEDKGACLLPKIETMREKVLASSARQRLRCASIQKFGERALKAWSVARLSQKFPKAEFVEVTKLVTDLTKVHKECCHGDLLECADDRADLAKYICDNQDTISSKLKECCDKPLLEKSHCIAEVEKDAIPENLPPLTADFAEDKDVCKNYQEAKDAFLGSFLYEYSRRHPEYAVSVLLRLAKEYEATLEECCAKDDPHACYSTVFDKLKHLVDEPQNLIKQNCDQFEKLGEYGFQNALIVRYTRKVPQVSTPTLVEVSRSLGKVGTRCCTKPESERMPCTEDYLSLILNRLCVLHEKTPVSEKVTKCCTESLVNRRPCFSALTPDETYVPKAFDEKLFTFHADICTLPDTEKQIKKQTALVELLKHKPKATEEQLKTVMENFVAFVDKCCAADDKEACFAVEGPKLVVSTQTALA

| Compound | COX-2 Inh. IC50 (ovine COX-2) | Albumin (inhibition of albumin denaturation) (bovine serum albumin) | IC50 [3] [µM] | LOX Inh. IC50 [3] | EC50 (HeLa cells; 48 h) [µM] | EC50 (MCF-7 cells) [µM] | IC50 (HeLa cells; 48 h of exposure, read-out: IC50 in HeLa cells (positive control)) [µM] | %NO2^− Release mol/mol at 100 μΜ [1] | AAPH Inh. at 100 μΜ [2] |
| --- | --- | --- | --- | --- | --- | --- | --- | --- | --- |
| C/C(=N\O)c1ccc(NC(=O)COC(=O)/C=C/c2cc3ccccc3o2)cc1 [Compound 6f, 2-((4-((E)-1-(Hydroxyimino)ethyl)phenyl)amino)-2-oxoethyl (E)-3-(benzofuran-2-yl)acrylate] | no | no | 61 |  |  |  |  | 0.3% | no |
| O=C(C=Cc1ccccc1)OCCOc1no[n+]([O-])c1S(=O)(=O)c1ccccc1 [Compound 11, 4-(2-(Cinnamoyloxy)ethoxy)-3-(phenylsulfonyl)-1,2,5-oxadiazole 2-oxide] | no | no |  | complete loss of activity and no |  |  |  | 11% | 90% |
| COc1cccc2c1C(=O)c1c(O)c3c(c(O)c1C2=O)C[C@@](O)(C(=O)CO)C[C@@H]3O[C@H]1C[C@H](N)[C@H](O)[C@H](C)O1 [doxorubicin, reference compound] |  |  |  |  |  |  | ~0.5 |  |  |

The next lines start with results.

| COX-2 Inh. IC50 (ovine COX-2) | Albumin (inhibition of albumin denaturation) (bovine serum albumin) | IC50 [3] [µM] | LOX Inh. IC50 [3] | EC50 (HeLa cells; 48 h) [µM] | EC50 (MCF-7 cells) [µM] | IC50 (HeLa cells; 48 h of exposure, read-out: IC50 in HeLa cells (positive control)) [µM] | Compound | %NO2^− Release mol/mol at 100 μΜ [1] | AAPH Inh. at 100 μΜ [2] |
| --- | --- | --- | --- | --- | --- | --- | --- | --- | --- |
| no | no | 3.5 |  |  |  |  | O=C(C=Cc1ccccc1)OCc1c(-c2ccccc2)no[n+]1[O-] [Compound 9a, 3-((Cinnamoyloxy)methyl)-4-phenyl-1,2,5-oxadiazole 2-oxide] | 20% | 91.6% |
| no | no |  | no |  |  |  | O=C(C=Cc1cccc2ccccc12)OCc1c(-c2ccccc2)no[n+]1[O-] [Compound 9b, 3-(((3-(Naphthalen-1-yl)acryloyl)oxy)methyl)-4-phenyl-1,2,5-oxadiazole 2-oxide] | 1.2% | 84% |
| no | no |  | no |  |  |  | O=C(/C=C/c1cccs1)OCc1c(-c2ccccc2)no[n+]1[O-] [Compound 9c, (E)-4-Phenyl-3-(((3-(thiophen-2-yl)acryloyl)oxy)methyl)-1,2,5-oxadiazole 2-oxide] | 1.2% | 73.3% |
| no | no | 63 |  |  |  |  | O=C(/C=C/c1ccco1)OCc1c(-c2ccccc2)no[n+]1[O-] [Compound 9d, (E)-3-(((3-(Furan-2-yl)acryloyl)oxy)methyl)-4-phenyl-1,2,5-oxadiazole 2-oxide] | no | 78% |
| no | no | 70 |  |  |  |  | O=C(/C=C/c1cc2ccccc2o1)OCc1c(-c2ccccc2)no[n+]1[O-] [Compound 9f, (E)-3-(((3-(Benzofuran-2-yl)acryloyl)oxy)methyl)-4-phenyl-1,2,5-oxadiazole 2-oxide] | no | 97% |
| no | no | 55.5 |  | 46.6 | > 100 |  | O=C(OCc1c(-c2ccccc2)no[n+]1[O-])/C(=C/c1ccccc1)c1ccccc1 [Compound 9g, (E)-3-(((2,3-Diphenylacryloyl)oxy)methyl)-4-phenyl-1,2,5-oxadiazole 2-oxide] | 3% | 90% |
| no | no | 10 |  |  |  |  | O=C(OCc1c(-c2ccccc2)no[n+]1[O-])/C(=C/c1cccc2ccccc12)c1ccccc1 [Compound 9h, (E)-3-(((3-(Naphthalen-1-yl)-2-phenylacryloyl)oxy)methyl)-4-phenyl-1,2,5-oxadiazole 2-oxide] | no | 94.5% |

Reference: article PMC12693419, “Design, Synthesis, Biological Evaluation, and In Silico Studies of Novel Multitarget Cinnamic Acid Hybrids” (Molecules, 2025)
